Measured values published in US9867884B2, “Vascular delivery systems” (Ben-Gurion University of the Negev Research and Development …, priority 2008, dated 2018).
Where two headings read alike, the source gives them in different places. One block for each substance: values may come before it. Ends that are not written are not given here. * marks the point of attachment. Methacryloyl = C=C(C)C(=O)*

Assays:
[1] = test system: leukocyte adhesion; details: have been shown (prior report); read-out: IC50 of inhibition of leukocyte adhesion; cited from earlier work
[2] = biological target: T1, E-selectin (Homo sapiens, UniProt P16581); assay: Inhibition of HL-60 adhesion to recombinant soluble E-selectin coated plates (competitive inhibition assay); type: binding
T1 sequence (P16581 22-556 limits assumed): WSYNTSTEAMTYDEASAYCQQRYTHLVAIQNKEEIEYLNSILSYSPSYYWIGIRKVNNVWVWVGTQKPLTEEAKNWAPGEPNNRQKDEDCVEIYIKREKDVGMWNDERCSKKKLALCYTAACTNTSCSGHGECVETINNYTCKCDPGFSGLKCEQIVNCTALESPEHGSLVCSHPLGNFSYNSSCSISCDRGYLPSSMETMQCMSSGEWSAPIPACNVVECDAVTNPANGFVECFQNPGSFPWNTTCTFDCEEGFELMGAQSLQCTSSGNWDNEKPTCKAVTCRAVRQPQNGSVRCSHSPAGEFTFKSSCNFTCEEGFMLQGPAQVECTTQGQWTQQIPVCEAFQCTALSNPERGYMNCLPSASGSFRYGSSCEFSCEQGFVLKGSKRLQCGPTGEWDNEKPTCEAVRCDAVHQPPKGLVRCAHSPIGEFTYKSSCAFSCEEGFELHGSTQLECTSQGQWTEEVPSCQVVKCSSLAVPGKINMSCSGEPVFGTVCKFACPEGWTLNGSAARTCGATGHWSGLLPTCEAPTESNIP
Procedure: The percentage of bound HL-60 cells is determined with o-phenylenediamine as a substrate for myeloperoxidases released from lysed cells. […] FIG. 3B depicts binding in the presence of P-Glu-Gly-QA, PAAsLe^x and pHPMA polymers; FIG. 3C depicts binding of P-Glu-Gly-QA and P-Gly-Gly-Lys(Glu)-QA conjugates.
Affinity of Esbp and P-Esbp to E-selectin was evaluated by a competitive inhibition assay of HL-60 to immobilized E-selectin. […] FIG. 7B the results of an inhibition assay with P-Esbp and P-GG-OH, under the same procedure as in FIG. 7A. In this figure diamonds are P-Esbp and squares are P-GG-OH.
The percentage of bound HL-60 cells is determined with o-phenylenediamine as a substrate for myeloperoxidases released from lysed cells. All assays is performed in duplicates.

[3] = test system: E-selectin expressing cells (human IVECs); assay: Confocal microscopy of uptake and lysosomal colocalization of FITC-labeled copolymer conjugates in IVECs; type: cell-based; details: Example 17, activated and non-activated human IVECs (FIG. 14)
Procedure: Internalization of P-sLe^x-FITC and P-QA-FITC conjugates by endothelial cells was studied using confocal laser scanning microscopy (CLSM). Human IVECs grown on cover glass, and treated with the polymer conjugate, and probed for localization of the polymer within lysosomal vessicles. After 24 hours incubation, cells are washed with cold phosphate-buffered saline (PBS) and fixed with 4% PFA. The cells on the cover glass are mounted in antibleach reagent on slides, examined using a CLSM, and analyzed.
Confocal microscopy was used to evaluate the subcellular fate of the FITC labeled copolymer conjugates by human immortalized vascular endothelial cells, IVECs. Lysotracker Red DND-99 (Molecular Probes, Leiden, The Netherlands) was selected to visualize lysosomes. Cells ([…]) were seeded onto gelatin coated cover slips in 24 wells plate with 500 μL endothelial cells culture medium (Promocell) and incubated for 24 hr. […] Quantitative analysis was performed using Image-Pro Plus 4.0 (Media Cybernetics, Silver Spring, Md.). Fluorescence intensities were expressed in arbitrary units per square micron. […]
Confocal microscopy was used to evaluate the uptake of P-Esbp. […] After removal of medium cells were incubated with 0.5 ml medium with 50 μg/ml of FITC labeled P-Esbp solution for 6 or 24 hours and subjected to fluorescence microscopy. […]

[4] = test system: E-selectin expressing cells (IVECs); assay: Flow cytometry of binding and uptake of FITC-labeled conjugates by IVECs; type: cell-based, human; details: 1 h at 4° C., E-selectin expressing cells (FIG. 12)
Procedure: FIG. 11A-F depicts the results of flow cytometry assays of IVECs incubated with P-Esbp at different temperatures. FIGS. 11(A)-(D) depict results of IVECs incubated 4° C. for 1 hour, while FIGS. 11(E)-(F) depict results of IVECs incubated 37° C. for 15 hr in activated (F) and non-activated (E) cells. FIGS. 11A and 11B show results of incubation with P-Esbp at a concentration of 10 and 50 μg/ml, respectively in TNF-α activated cells, versus 11C and D, which show the results of non-activated cells incubated with the same concentration of P-Ebsp, respectively. Fluorescence, size and number of cells were all measured with GUAVA Tech-Mini Easycyte at 520 nm. Statistical analysis of the results was performed with Cytosoft software (GUAVA Tech). Gates for size and fluorescence were set according to the control experiment with P-GG-OH incubated with non activated IVEC cells.
At 37° C. […]
E-selectin expressing cells were treated with P-Esbp and P-Scrmb as described in previous examples, to determine binding, in activated and non-activated cells (FIG. 12). Cells were treated with P-Esbp and P-Scrmb conjugates for 1 h at 4° C. and evaluated for binding. […] Binding of P-Esbp and scrambled Esbp peptide sequence polymer conjugates (P-Scrmb) to E-selectin expressing cells was similarly evaluated, when cells were also contacted with or without free peptides (FIG. 13). […]

Substance: DITWDQLWDLMK [Esbp, reference compound]
IC50 [1]: 4 nM
IC50 ([2]; Esbp monomer, FIG. 7A, read-out: IC50): 0.01 mM

IC50 ([2]; monomers, HL-60 adhesion to immobilized E-selectin, 15 min (FIG. 3A), read-out: Inhibition of 50% binding (IC50) value): 10 mM
Substance: N-methacryloyl-aminopropyl-Glutamyl-Glycyl-quinic acid [MAP-Glu-Gly-QA]

Substance: P-Scrmb: scrambled Esbp peptide sequence polymer conjugate, GKMIDWTWLQLDD (SEQ ID NO: 8) (Methacryloyl-GGGKMIDWTWLQLDD; also: polymer conjugate, FITC)
internalization and colocalization with lysosomal marker [3]: did not show reasonable internalization or colocalization
percentage of labeled cells [4]: 6%
